Experimental data reported in BindingDB's records for doi:10.1021/bi2002967 (University of Colorado Denver, 2011).

biological target: K562 (Homo sapiens); assay: Cell assay using human leukemia cell line K562.

IC50 [µM] | SMILES
> 10 | Cc1c(COc2c(F)cc(F)cc2F)c2c(O)cc(N=CCCN(C)C)c(O)c2n1C [Indolequinone, compd 6]
> 10 | Cc1c(COc2ccc([N+](=O)[O-])cc2)c2c(O)c(N=CCCCN)cc(O)c2n1C [Indolequinone, compd 1]
> 10 | Cc1c(COc2c(F)cc(F)cc2F)c2c(O)c(N=CCCN(C)C)cc(O)c2n1C [Indolequinone, compd 5]
> 10 | Cc1c(COc2ccccc2)c2c(O)c(N=CCCN(C)C)cc(O)c2n1C [Indolequinone, compd 8]
> 10 | Cc1c(COc2c(F)cc(F)cc2F)c2c(O)cc(N=CCCCN)c(O)c2n1C [Indolequinone, compd 3]
> 10 | Cc1c(CO)c2c(O)c(N=CCCN(C)C)cc(O)c2n1C [Indolequinone, compd 9]
> 10 | Cc1c(COc2c(F)cc(F)cc2F)c2c(O)c(N=CCCN)cc(O)c2n1C [Indolequinone, compd 4]
> 10 | Cc1c(COc2c(F)cc(F)cc2F)c2c(n1C)C(=O)C=C(N(C)CCCN(C)C)C2=O [Indolequinone, compd 7]
> 10 | Cc1c(COc2c(F)cc(F)cc2F)c2c(O)c(N=CCCCN)cc(O)c2n1C [Indolequinone, compd 2]
